The values that follow come from US11661404B2, “Prodrug compounds activated by AKR1C3 and their use for treating hyperproliferative disorders” (priority 2018, dated 2023).

Read-outs that look alike come from different tables or passages of the source.

Data set [1] has as its system AKR1C3 mixed MCLs. The note with it: cited from earlier work.
The test system of data set [2] is wild-type PLC/PRF/5 hepatocellular carcinoma cells. As to the kind of experiment: Anti-proliferative IC50 assay, wild-type PLC/PRF/5. The data set is classed as cell-based, human. The note with it: for IC50: Homo sapiens, PLC-PRF-5. Here is the method: Four hundred cells were seeded in a volume of 100 μL in each well of a 96-well plate. The cells were left in a humidified incubator (37° C., 5% CO2) for 2 hours in order to enable attachment to the surface of the wells prior to compound addition. All compounds were prepared as stocks in DMSO and stored at −80° C. Frozen stocks of compounds were thawed immediately prior to addition to cells. Working solutions of each compound were made in α-MEM+5% FBS (v/v) at 3 times the required final concentration for the top well. The final concentration of DMSO in the α-MEM solution was ensured to not exceed 1% of the total volume. 50 μL of the working solution was added to the top wells (in duplicates) and gently mixed. The solubility of some compounds precluded the working solution in α-MEM to be 3 times the desired top well concentration. […] A 3-fold serial dilution was carried out along the plate starting from the top well. The first column of wells on the plate served as blanks (containing α-MEM+FBS) and the second column served as control wells (containing cells with no compound added). Following compound addition, the plates were incubated for 4 hours in a humidified incubator (37° C., 5% CO2).
Following the 4 hour compound exposure, the 96-well plates were washed three times by aspirating media with an Immuno Washer (Nunc) and each well replaced with 150 μL of α-MEM+5% (v/v) FBS+1% (v/v) P/S. The plates were left in a humidified incubator (37° C., 5% CO2) for 5 days to enable cell growth. The cells in 96-well plates were fixed 5 days after compound exposure by adding 50 μL of a 40% (w/v) trichloroacetic acid (TCA) solution so as to obtain a final TCA concentration of 10% in each well. The plates were left in the refrigerator (4° C.) for 1 hour and subsequently rinsed 3 times in tap water. Any excess water was left to drain and the cells were stained with 50 μL of 0.4% (w/v) sulforhodamine B (SRB). The plates with the SRB stain were left in the dark for 30 minutes. Excess stain was removed from the wells by rinsing the plates 4 times in water containing 1% (v/v) acetic acid. The stain was solubilised by adding 100 μL of 10 mM unbuffered Tris (pH 10.5) to each well and the plates were left in a shaker in a dark environment at room temperature for at least 1 hour. The absorbance values of the wells were determined by an ELx 808 Absorbance Microplate Reader (Bio-Tek Instruments, Winooski, Vt., USA), with the wavelength of the measurement filter set at 490 nm and a reference filter set at 450 nm. The absorbance of the reference filter was subtracted from the measurement filter to obtain a final absorbance of λ490-450 nm. The absorbance data was analysed and IC50 values determined by the KC4 microplate data analysis software (KC4™ V3.4, Bio-Tek).
Anti-proliferative IC50 assays were repeated as described above including the addition of 3 μM SN34037, a selective and potent small molecule inhibitor of AKR1C3.
Materials and methods used are as described for Example 9.

Data set [3] is described as follows: Solubility by HPLC in water and lactate buffer. The data set is classed as physicochemical. The note with it: lactate buffer (pH 4), room temperature. Here is the method:
The solubility and stability of compound 641 was studied by HPLC in lactate buffer (pH 4) and water as the free base and the mesylate salt (641.Ms) at 0° C. and room temperature (RT). […] However, this was improved considerably by formulation as the mesylate salt, producing a solubility of greater than 100 mmol/L in lactate buffer and greater than 70 mmol/L in water. […] This stability was improved considerably by reducing the temperature of the solution to 0° C.

Setting [4] is: read-out: PLC/PRF/5-WT Anti-proliferative IC50.
Where [5] appears, read: with 3 μM SN34037, read-out: PLC/PRF/5-WT +AKR1C3 Inhibitor Anti-proliferative IC50.

With `CS(=O)(=O)OCCN(CCBr)c1c(C(=O)NCCO)cc([N+](=O)[O-])cc1[N+](=O)[O-]` [PR-104A, 2-((2-bromoethyl)(2-((2-hydroxyethyl)-carbamoyl)-4,6-dinitrophenyl)amino)ethyl methanesulfonate, reference compound], the “bystander effect (literature)” value in data set [1] (Foehrenbacher et al, 2013) is recorded as “substantial bystander effect”. Also, the IC50 in data set [2] (setting [4]) was 108 µM; in data set [2] (setting [5]), 181 µM.

In the case of `CN1CCN(C(=O)c2cc([N+](=O)[O-])ccc2N(CCBr)CCBr)CC1` [SN34118, reference compound], the “BEE reported in AKR1C3 mixed MCLs” value in data set [1] (Silva, MSc Thesis) is recorded as 52.7%. In addition, the IC50 was 115 µM in data set [2] (setting [4]) and 174 µM in data set [2] (setting [5]).

In the case of `CN1CCN(S(=O)(=O)c2cc([N+](=O)[O-])ccc2N(CCOS(C)(=O)=O)CCOS(C)(=O)=O)CC1` [Compound 641, ((2-((4-methylpiperazin-1-yl)sulfonyl)-4-nitrophenyl)azanediyl)bis(ethane-2,1-diyl) dimethanesulfonate], in data set [3], the “Solubility, Lactate Buffer, RT” value worked out at 3.4 mM. Also, the IC50 is 1.42 µM in data set [2] (setting [4]) and 40.5 µM in data set [2] (setting [5]).

On to `CN1CCN(C(=O)c2cc([N+](=O)[O-])ccc2N(CCBr)CCOS(C)(=O)=O)CC1` [SN34454, reference compound], for which the values for the IC50 in data set [2] (setting [4]) and in data set [2] (setting [5]) were 111 µM and 131 µM, respectively.

As for `CN1CCN(S(=O)(=O)c2cc([N+](=O)[O-])ccc2N(CCBr)CCOS(C)(=O)=O)CC1` [Compound 602, 2-((2-bromoethyl)(2-((4-methylpiperazin-1-yl)sulfonyl)-4-nitrophenyl)amino)ethyl methanesulfonate], in data set [2], the “more cytotoxic in PLC/PRF/5 cells than SN34454” value worked out at 94 fold. In addition, the IC50 in data set [2] (setting [4]) was determined as 1.19 µM; in data set [2] (setting [5]), 23.7 µM.
